ChEMBL document CHEMBL1914362, “Highlights of marine invertebrate-derived biosynthetic products: their biomedical potential and possible production by microbial associants” (Bioorg Med Chem, 2011)

Experiments:
HT-29 = test: Cytotoxicity against human HT-29 cells; format: functional, cell-based
HCT-116 = test: Cytotoxicity against human HCT116 cells; format: functional, cell-based
[1] = Irreversible inhibition of 20S proteasome

Structure (SMILES)	IC50 (HT-29) [nM]	further results
C=CC(C)(C)c1[nH]cnc1/C=C1\NC(=O)[C@H](Cc2ccccc2)NC1=O	440	
C[C@@]12OC(=O)[C@]1([C@@H](O)[C@@H]1C=CCCC1)NC(=O)[C@@H]2CCCl [MARIZOMIB]		IC50 (HCT-116): 35 nM
CC(C)[C@H](O)[C@@]12NC(=O)[C@H](C)[C@@H]1OC2=O [OMURALIDE]		IC50 [1]: 49 nM
CC(C)(C)c1[nH]cnc1/C=c1\[nH]c(=O)/c(=C/c2ccccc2)[nH]c1=O [PLINABULIN]	18	
